Tests used:
[1] = molecular target: recombinant human histamine H4 receptor (Homo sapiens, UniProt Q9H3N8); details: histamine 100 pM-100 uM, forskolin 3 uM
[2] = system: croton oil induced topical inflammation in mice; details: H4 ANTAG #1 10 mg/kg

recombinant human histamine H4 receptor, sequence (Q9H3N8 whole entry): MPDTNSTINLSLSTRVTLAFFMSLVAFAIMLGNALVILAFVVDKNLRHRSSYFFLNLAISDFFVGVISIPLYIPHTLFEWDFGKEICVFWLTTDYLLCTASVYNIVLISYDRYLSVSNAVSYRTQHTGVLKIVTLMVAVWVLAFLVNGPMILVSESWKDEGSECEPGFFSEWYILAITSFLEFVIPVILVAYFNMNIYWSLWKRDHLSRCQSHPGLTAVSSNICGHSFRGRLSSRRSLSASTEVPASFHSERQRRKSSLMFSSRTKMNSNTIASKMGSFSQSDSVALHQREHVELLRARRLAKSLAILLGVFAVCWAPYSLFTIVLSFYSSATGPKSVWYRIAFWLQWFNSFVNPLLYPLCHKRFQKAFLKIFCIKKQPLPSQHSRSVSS

SMILES | Activation of the receptor (decrease of cAMP content in response to forskolin) [1] | Difference in ear thickness (×0.01 mm), Mean ([2]; s.c. 30 min before and 2, 4 h after croton oil, Indomethacin 30 mg/kg, measured 6 h after croton oil) | % inhib of ear swelling ([2]; versus vehicle group, Indomethacin 30 mg/kg s.c.)
NCCc1c[nH]cn1 [Histamine] | specifically activated |  | 
COc1ccc2c(c1)c(CC(=O)O)c(C)n2C(=O)c1ccc(Cl)cc1 [Indomethacin] |  | 10.0 ×0.01 mm | (−40%)

— patent US20040105856A1 (priority 2002, published 2004)
